Laboratory results published in patent publication US10294202B2, “Pyrrolidinones as herbicides” (FMC Corporation, priority 2013, dated 2019).

Legend:
[1] = test system: sedge, umbrella; experiment: Test B flooded paddy test; format: in vivo, Cyperus difformis; conditions: 500 g ai/ha, Flood; scale of 0 to 100 where 0 is no effect and 100 is complete control
Method in brief: (§1)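 2-leaf plants; flood 3 cm over soil; compound into paddy water; depth held. Greenhouse 13–15 d. Visual rating vs controls, 0 (no effect) to 100 (complete control); dash = not tested.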

[2] = test system: giant foxtail; experiment: Test A pre-/postemergence herbicide test; format: in vivo, Setaria faberii
Method in brief: (§2)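 Both application timings used compounds in a non-phytotoxic solvent plus surfactant. Pre-emergence: soil sprayed directly after seeding into loam/sand. Post-emergence: foliage of 2–10 cm seedlings (1–2 leaves) sprayed. Injury rated ~10 days later, 0–100.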

[3] = test system: wheat; experiment: Test A pre-/postemergence herbicide test; format: in vivo, Triticum aestivum; conditions: Postemergence
Method in brief: as §2

[4] = test system: blackgrass; experiment: Test A postemergence herbicide test; format: in vivo, Alopecurus myosuroides
Method in brief: (§3)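 Injury was rated visually about 10 days after treatment on a 0 (no effect) to 100 (complete control) scale, compared with untreated plants. Test chemicals were sprayed postemergence onto greenhouse plants 2–10 cm high at one to two leaves, grown in a loam–sand blend.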

[5] = test system: rice; experiment: Test B flooded paddy test; format: in vivo, Oryza sativa; conditions: 500 g ai/ha, Flood; scale of 0 to 100 where 0 is no effect and 100 is complete control
Method in brief: as §1

[6] = test system: corn; experiment: Test A pre-/postemergence herbicide test; format: in vivo, Zea mays; conditions: Postemergence
Method in brief: as §2

[7] = test system: ragweed; experiment: Test A pre-/postemergence herbicide test; format: in vivo, Ambrosia elatior
Method in brief: as §2

[8] = test system: ducksalad; experiment: Test B flooded paddy test; format: in vivo, Heteranthera limosa; conditions: 500 g ai/ha, Flood; scale of 0 to 100 where 0 is no effect and 100 is complete control
Method in brief: as §1

[9] = test system: ryegrass, Italian; experiment: Test A pre-/postemergence herbicide test; format: in vivo, Lolium multiflorum
Method in brief: as §2

[10] = test system: barnyardgrass; experiment: Test B flooded paddy test; format: in vivo, Echinochloa crus-galli; conditions: 500 g ai/ha, Flood; scale of 0 to 100 where 0 is no effect and 100 is complete control
Method in brief: as §1

[11] = test system: kochia; experiment: Test A pre-/postemergence herbicide test; format: in vivo, Kochia scoparia
Method in brief: as §2

[12] = test system: pigweed; experiment: Test A pre-/postemergence herbicide test; format: in vivo, Amaranthus retroflexus
Method in brief: as §2

[13] = test system: barnyardgrass; experiment: Test A pre-/postemergence herbicide test; format: in vivo, Echinochloa crus-galli
Method in brief: as §2

[14] = test system: galium; experiment: Test A postemergence herbicide test; format: in vivo, Galium aparine
Method in brief: as §3

[15] = 125 g ai/ha, visual rating, 0 to 100 scale, 0 no effect, 100 complete control, approximately 10 days, preemergence
[16] = Postemergence, 125 g ai/ha, 0 to 100 scale, 0 no effect, 100 complete control
[17] = preemergence, 500 g ai/ha, 0 to 100 scale
[18] = 125 g ai/ha, 0 to 100 scale, 0 no effect, 100 complete control
[19] = 500 g ai/ha, 0 to 100 scale (0 no effect, 100 complete control)
[20] = Postemergence, 500 g ai/ha, 0 to 100 scale (0 no effect, 100 complete control)
[21] = preemergence, 500 g ai/ha, 0 to 100 scale (0 no effect, 100 complete control)
[22] = Postemergence, 125 g ai/ha, visual rating on 0 to 100 scale (0 no effect, 100 complete control), approx. 10 days
[23] = Preemergence, 125 g ai/ha, 0 to 100 scale where 0 is no effect and 100 is complete control
[24] = preemergence, 500 g ai/ha, 0 to 100 scale, 0 is no effect and 100 is complete control
[25] = 125 g ai/ha, visual rating on 0 to 100 scale (0 no effect, 100 complete control), approx. 10 days

O=C1NCC(c2cccc(OC(F)(F)C(F)F)c2)C1C(=O)Nc1ccccc1Cl (racemic) [Compound 125]
Plant response rating, Sedge, Umbrella [1]: 0 | Plant response rating, Foxtail, Giant [2, 15]: 80 | Plant response rating, Foxtail, Giant [2, 16]: 70 | Foxtail, Giant plant response rating (0 to 100 scale, 0 is no effect, 100 is complete control) ([2]; Postemergence, 500 g ai/ha): 80 | Plant response rating, Foxtail, Giant [2, 17]: 90 | Plant response rating, Wheat [3, 18]: 0 | Wheat plant response rating (0 to 100 scale, 0 is no effect, 100 is complete control) ([3]; 500 g ai/ha): 0 | Plant response rating, Blackgrass [4, 18]: 20 | Plant response rating, Blackgrass [4, 19]: 50 | Plant response rating, Rice [5]: 0 | Plant response rating, Corn [6, 18]: 0 | Plant response rating, Corn [6, 19]: 0 | Plant response rating, Ragweed [7, 15]: 0 | Plant response rating, Ragweed [7, 16]: 0 | Ragweed plant response rating (0 to 100 scale, 0 is no effect, 100 is complete control) ([7]; Postemergence, 500 g ai/ha): 0 | Plant response rating, Ragweed [7, 17]: 0 | Plant response rating, Ducksalad [8]: 85 | Plant response rating, Ryegrass, Italian [9, 15]: 0 | Plant response rating, Ryegrass, Italian [9, 16]: 0 | Ryegrass, Italian plant response rating (0 to 100 scale, 0 is no effect, 100 is complete control) ([9]; Postemergence, 500 g ai/ha): 0 | Plant response rating, Ryegrass, Italian [9, 17]: 20 | Plant response rating, Barnyardgrass [10]: 30 | Plant response rating, Kochia [11, 15]: 30 | Plant response rating, Kochia [11, 16]: 20 | Kochia plant response rating (0 to 100 scale, 0 is no effect, 100 is complete control) ([11]; Postemergence, 500 g ai/ha): 60 | Plant response rating, Kochia [11, 17]: 70 | Plant response rating, Pigweed [12, 15]: 0 | Plant response rating, Pigweed [12, 16]: 0 | Pigweed plant response rating (0 to 100 scale, 0 is no effect, 100 is complete control) ([12]; Postemergence, 500 g ai/ha): 20 | Plant response rating, Pigweed [12, 17]: 0 | Plant response rating, Barnyardgrass [13, 15]: 80 | Plant response rating, Barnyardgrass [13, 16]: 60 | Plant response rating, Barnyardgrass [13, 20]: 70 | Plant response rating, Barnyardgrass [13, 21]: 90 | Plant response rating, Galium [14, 18]: 0 | Galium plant response rating (0 to 100 scale, 0 is no effect, 100 is complete control) ([14]; 500 g ai/ha): 60

O=C1NCC(c2ccc(F)cc2)C1C(=O)Nc1ccccc1OC(F)F (racemic) [Compound 118]
Plant response rating, Sedge, Umbrella [1]: 0 | Plant response rating, Foxtail, Giant [2, 15]: 90 | Plant response rating, Foxtail, Giant [2, 16]: 50 | Foxtail, Giant plant response rating (0 to 100 scale, 0 is no effect, 100 is complete control) ([2]; Postemergence, 500 g ai/ha): 80 | Plant response rating, Foxtail, Giant [2, 17]: 90 | Plant response rating, Wheat [3, 18]: 0 | Wheat plant response rating (0 to 100 scale, 0 is no effect, 100 is complete control) ([3]; 500 g ai/ha): 0 | Plant response rating, Blackgrass [4, 18]: 0 | Plant response rating, Blackgrass [4, 19]: 0 | Plant response rating, Rice [5]: 0 | Plant response rating, Corn [6, 18]: 0 | Plant response rating, Corn [6, 19]: 0 | Plant response rating, Ragweed [7, 15]: 0 | Plant response rating, Ragweed [7, 16]: 0 | Ragweed plant response rating (0 to 100 scale, 0 is no effect, 100 is complete control) ([7]; Postemergence, 500 g ai/ha): 0 | Plant response rating, Ragweed [7, 17]: 0 | Plant response rating, Ducksalad [8]: 100 | Plant response rating, Ryegrass, Italian [9, 15]: 0 | Plant response rating, Ryegrass, Italian [9, 16]: 0 | Ryegrass, Italian plant response rating (0 to 100 scale, 0 is no effect, 100 is complete control) ([9]; Postemergence, 500 g ai/ha): 0 | Plant response rating, Ryegrass, Italian [9, 17]: 0 | Plant response rating, Barnyardgrass [10]: 20 | Plant response rating, Kochia [11, 15]: 0 | Plant response rating, Kochia [11, 16]: 10 | Kochia plant response rating (0 to 100 scale, 0 is no effect, 100 is complete control) ([11]; Postemergence, 500 g ai/ha): 50 | Plant response rating, Kochia [11, 17]: 0 | Plant response rating, Pigweed [12, 15]: 0 | Plant response rating, Pigweed [12, 16]: 0 | Pigweed plant response rating (0 to 100 scale, 0 is no effect, 100 is complete control) ([12]; Postemergence, 500 g ai/ha): 0 | Plant response rating, Pigweed [12, 17]: 0 | Plant response rating, Barnyardgrass [13, 15]: 50 | Plant response rating, Barnyardgrass [13, 16]: 0 | Plant response rating, Barnyardgrass [13, 20]: 60 | Plant response rating, Barnyardgrass [13, 21]: 70 | Plant response rating, Galium [14, 18]: 50 | Galium plant response rating (0 to 100 scale, 0 is no effect, 100 is complete control) ([14]; 500 g ai/ha): 60

COc1cc(C2CNC(=O)C2C(=O)Nc2ccc(F)c(F)c2F)ccc1F (racemic) [Compound 132]
Plant response rating, Sedge, Umbrella [1]: 0 | Plant response rating, Foxtail, Giant [2, 15]: 70 | Plant response rating, Foxtail, Giant [2, 16]: 50 | Foxtail, Giant plant response rating (0 to 100 scale, 0 is no effect, 100 is complete control) ([2]; Postemergence, 500 g ai/ha): 70 | Plant response rating, Foxtail, Giant [2, 17]: 80 | Plant response rating, Wheat [3, 18]: 0 | Wheat plant response rating (0 to 100 scale, 0 is no effect, 100 is complete control) ([3]; 500 g ai/ha): 0 | Plant response rating, Blackgrass [4, 18]: 0 | Blackgrass plant response rating (0 to 100 scale, 0 is no effect, 100 is complete control) ([4]; 500 g ai/ha): 0 | Plant response rating, Rice [5]: 0 | Plant response rating, Corn [6, 18]: 0 | Corn plant response rating (0 to 100 scale, 0 is no effect, 100 is complete control) ([6]; 500 g ai/ha): 0 | Plant response rating, Ragweed [7, 15]: 0 | Plant response rating, Ragweed [7, 16]: 0 | Ragweed plant response rating (0 to 100 scale, 0 is no effect, 100 is complete control) ([7]; Postemergence, 500 g ai/ha): 0 | Plant response rating, Ragweed [7, 17]: 0 | Plant response rating, Ducksalad [8]: 85 | Plant response rating, Ryegrass, Italian [9, 15]: 0 | Plant response rating, Ryegrass, Italian [9, 16]: 0 | Ryegrass, Italian plant response rating (0 to 100 scale, 0 is no effect, 100 is complete control) ([9]; Postemergence, 500 g ai/ha): 0 | Plant response rating, Ryegrass, Italian [9, 17]: 0 | Plant response rating, Barnyardgrass [10]: 40 | Plant response rating, Kochia [11, 15]: 0 | Plant response rating, Kochia [11, 16]: 0 | Kochia plant response rating (0 to 100 scale, 0 is no effect, 100 is complete control) ([11]; Postemergence, 500 g ai/ha): 10 | Plant response rating, Kochia [11, 17]: 0 | Plant response rating, Pigweed [12, 15]: 0 | Plant response rating, Pigweed [12, 16]: 0 | Pigweed plant response rating (0 to 100 scale, 0 is no effect, 100 is complete control) ([12]; Postemergence, 500 g ai/ha): 0 | Plant response rating, Pigweed [12, 17]: 0 | Plant response rating, Barnyardgrass [13, 15]: 70 | Plant response rating, Barnyardgrass [13, 16]: 60 | Barnyardgrass plant response rating (0 to 100 scale, 0 is no effect, 100 is complete control) ([13]; Postemergence, 500 g ai/ha): 80 | Plant response rating, Barnyardgrass [13, 21]: 90 | Plant response rating, Galium [14, 18]: 0 | Galium plant response rating (0 to 100 scale, 0 is no effect, 100 is complete control) ([14]; 500 g ai/ha): 0

O=C1NCC(c2ccc(Cl)s2)C1C(=O)Nc1ccccc1F (stereo not drawn) [Compound 292]
Plant response rating, Sedge, Umbrella [1]: 0 | Plant response rating, Foxtail, Giant [2, 22]: 50 | Plant response rating, Foxtail, Giant [2, 20]: 60 | Plant response rating, Foxtail, Giant [2, 23]: 50 | Plant response rating, Foxtail, Giant [2, 24]: 60 | Plant response rating, Wheat [3, 25]: 0 | Plant response rating, Wheat [3, 19]: 0 | Plant response rating, Blackgrass [4, 25]: 0 | Plant response rating, Blackgrass [4, 19]: 0 | Plant response rating, Rice [5]: 0 | Plant response rating, Corn [6, 25]: 0 | Plant response rating, Corn [6, 19]: 0 | Plant response rating, Ragweed [7, 22]: 0 | Plant response rating, Ragweed [7, 20]: 0 | Plant response rating, Ragweed [7, 23]: 0 | Plant response rating, Ragweed [7, 24]: 0 | Plant response rating, Ducksalad [8]: 100 | Plant response rating, Ryegrass, Italian [9, 22]: 0 | Plant response rating, Ryegrass, Italian [9, 20]: 0 | Plant response rating, Ryegrass, Italian [9, 23]: 0 | Ryegrass, Italian plant response rating ([9]; Preemergence, 500 g ai/ha, visual rating on 0 to 100 scale (0 no effect, 100 complete control)): 0 | Plant response rating, Barnyardgrass [10]: 50 | Plant response rating, Kochia [11, 22]: 0 | Plant response rating, Kochia [11, 20]: 0 | Plant response rating, Kochia [11, 23]: 30 | Plant response rating, Kochia [11, 24]: 80 | Plant response rating, Pigweed [12, 22]: 0 | Plant response rating, Pigweed [12, 20]: 0 | Plant response rating, Pigweed [12, 23]: 0 | Plant response rating, Pigweed [12, 24]: 0 | Plant response rating, Barnyardgrass [13, 22]: 50 | Plant response rating, Barnyardgrass [13, 20]: 70 | Plant response rating, Barnyardgrass [13, 23]: 70 | Plant response rating, Barnyardgrass [13, 24]: 80 | Plant response rating, Galium [14, 25]: 10 | Plant response rating, Galium [14, 19]: 20
